Measurements: patent US20100113504A1, “AMIDE COMPOUNDS AND THEIR USE AS ANTITUMOR AGENTS” (SIGMA-TAU INDUSTRIE FARMACEUTICHE RIUNITE S.P.A., priority 2007, published 2010)
Structures can show the parent of a compound that is named as a salt. Where two headings read alike, the source gives them in different places.

What was measured:
Format in all cases: cell-based
[1] = test system: NB4 human promyelocitic leukaemia; assay: Cytotoxicity (sulphorodamine B) on NB4 tumor cells; conditions: then 48 h in drug-free medium, read-out: IC50 ± SD, NB4
Method: To test the effects of the compounds on cell growth, NB4 human promyelocitic leukaemia, NCI-H460 non-small cell carcinoma cells and HCT-116 human colon carcinoma cells were used. NB4 and NCI-H460 tumor cells were grown RPMI 1640 containing 10% fetal bovine serum (GIBCO), whereas HCT-116 tumor cells were grown in McCoy's 5A containing 10% fetal bovine serum (GIBCO).
(§1) Tumor cells were seeded in 96-well tissue culture plates at approximately 10% confluence and were allowed to attach and recover for at least 24 h. […] The plates were incubated for 24 h at 37° C. At the end of the treatment, for NB4 tumor cells in suspension, the procedure was performed as follows: medium culture was removed by centrifugation of the plates at 1600×g for 10 min and the surnatant was removed. 250 μl PBS were added, then the plates were centrifuged at 1600×g for 10 min, the surnatant was removed. 200 μl/well of medium culture RPMI 1640 containing 10% FCS were added and the plates were incubated at 37° C. for other 48 h. The plates were centrifuged again at 1600×g for 10 min, the medium culture was removed and 200 μl PBS and 50 μl of cold 80% TCA were added. The plates were incubated on ice for at least 1 h. TCA was removed, the plates were washed 3 times for immersion in distilled-water and dried before on paper, then in a thermostater at 40° C. Subsequently 200 μl of 0.4% sulphorodamine B in 1% acetic acid were added. The plates were incubated at room temperature for other 30 min. Sulphorodamine B was removed, the plates were washed for immersion in 1% acetic acid for 3 times, then they were washed and dried on paper. 200 μl Tris 10 mM were added, the plates were kept under stirring for 20 min. The survival cell was determined as optical density by a Multiskan spectrofluorimeter at 540 nm. For the tumor cells in adhesion (NCI-H460 and HCT-116), the procedure was as above mentioned, except that the at the end of the treatment, the plates were washed by remotion of the surnatant and addition of PBS 3 times and not by centrifugation. Also the last day of the assay, the surnatant was removed without centrifugation.
(§2) The amount of cells killed was calculated as the percentage decrease in sulphorodamine B binding compared with control cultures.

[2] = test system: NCI-H460 non-small cell carcinoma cells; assay: Cytotoxicity (sulphorodamine B) on NCI-H460 tumor cells; conditions: 24 h treatment, then 48 h in drug-free medium, read-out: IC50 ± SD, NCI-H460
Method: as §1, with “200 μl/well of medium culture RPMI 1640 containing 10% FCS were added and the plates were incubated at 37° C. for other 48 h.” left out, “For the tumor cells in adhesion (NCI-H460 and HCT-116), the procedure was as above mentioned, except that the at the end of the treatment, the plates were washed by remotion of the surnatant and addition of PBS 3 times and not by centrifugation.” left out
as §2

[3] = test system: NB4, NCI-H460 and HCT-116 tumor cells; assay: Cytotoxicity summarised over the three tumor cell lines; conditions: Homo sapiens; mean over NB4, NCI-H460, HCT-116; 24 h of treatment
Method: as §1, with “200 μl/well of medium culture RPMI 1640 containing 10% FCS were added and the plates were incubated at 37° C. for other 48 h.” left out, “For the tumor cells in adhesion (NCI-H460 and HCT-116), the procedure was as above mentioned, except that the at the end of the treatment, the plates were washed by remotion of the surnatant and addition of PBS 3 times and not by centrifugation.” left out
as §2

[4] = test system: HCT-116 human colon carcinoma cells; assay: Cytotoxicity (sulphorodamine B) on HCT-116 tumor cells; conditions: HCT-116 cells, 24 h treatment, then 48 h in drug-free medium, read-out: IC50 ± SD, HCT-116
Method: as §1, with “200 μl/well of medium culture RPMI 1640 containing 10% FCS were added and the plates were incubated at 37° C. for other 48 h.” left out, “For the tumor cells in adhesion (NCI-H460 and HCT-116), the procedure was as above mentioned, except that the at the end of the treatment, the plates were washed by remotion of the surnatant and addition of PBS 3 times and not by centrifugation.” left out
as §2

[5] = Homo sapiens, NB-4, 24 h treatment

| SMILES | IC50 [1, 5] [µM] | IC50 ([2]; Homo sapiens) [µM] | IC50 [3] [µM] | IC50 ([4]; Homo sapiens) [µM] | IC50 ([1]; 24 h treatment) [µM] | IC50 [2] [µM] | IC50 [4] [µM] |
| --- | --- | --- | --- | --- | --- | --- | --- |
| COc1cc(COC(CCCCCC(=O)NO)C(=O)Nc2ccccc2)cc(OC)c1 (racemic) [Compound 9j, (±)-2-(3,5-Dimethoxybenzyloxy)octanedioic acid 8-hydroxyamide 1-phenylamide] | 0.05 ± 0.005 | 0.4 ± 0.07 | < 1 | 0.3 ± 0.008 |  |  |  |
| COC(CCCCCC(=O)NO)C(=O)Nc1ccccc1 (racemic) [Compound 9b, (±)-2-Methoxyoctanedioic acid 8-hydroxyamide 1-phenylamide] | 0.5 ± 0.03 | 1.2 ± 0.1 | < 1 | 0.9 ± 0.04 |  |  |  |
| COc1cccc(COC(CCCCCC(=O)NO)C(=O)N(Cc2cccc(OC)c2)c2ccccc2)c1 (racemic) [Compound 9i, (±)-2-(3-methoxybenzyloxy)octanedioic acid 8-hydroxyamide 1-[(3-methoxybenzyl)phenylamide]] |  |  |  |  | 4 ± 0.7 | 7.4 ± 0.5 | 7.5 ± 0.4 |
| O=C(CCCCCC(O)C(=O)Nc1ccccc1)NO (racemic) [Compound 9a, (±)-2-Hydroxyoctanedioic acid 8-hydroxyamide 1-phenylamide] | 0.5 ± 0.03 | 1 ± 0.09 | < 1 | 0.7 ± 0.02 |  |  |  |
| COc1ccc(COC(CCCCCC(=O)NO)C(=O)Nc2ccccc2)cc1 (racemic) [Compound 9d, (±)-2-(4-Methoxybenzyloxy)octanedioic acid 8-hydroxyamide 1-phenylamide] | 0.1 ± 0.01 | 0.5 ± 0.02 | < 1 | 0.2 ± 0.006 |  |  |  |
| O=C(CCCCC(OCc1ccccc1)C(=O)Nc1ccccc1)NO (racemic) [Compound 5f, (±)-2-Benzyloxyheptanedioic acid 7-hydroxyamide 1-phenylamide] | > 5 | 5.5 ± 0.6 |  | 2.4 ± 0.06 |  |  |  |
| CO[C@H](CCCCC(=O)NO)C(=O)Nc1ccccc1 [(R)-5b, 2-(R)-Methoxyheptanedioic acid 7-hydroxyamide 1-phenylamide] | 4 ± 0.6 | 9.6 ± 0.5 |  | 7.8 ± 0.5 |  |  |  |
| COc1ccc(CO[C@@H](CCCCCC(=O)NO)C(=O)Nc2ccccc2)cc1 [(S)-9d, 2-(S)-(4-Methoxybenzyloxy)octanedioic acid 8-hydroxyamide 1-phenylamide] |  |  |  |  | 0.1 ± 0.002 | 0.4 ± 0.03 | 0.2 ± 0.007 |
| COc1ccc(CO[C@H](CCCCCC(=O)NO)C(=O)Nc2ccccc2)cc1 [(R)-9d, 2-(R)-(4-Methoxybenzyloxy)octanedioic acid 8-hydroxyamide 1-phenylamide] | 0.07 ± 0.01 | 0.5 ± 0.03 | < 1 | 0.4 ± 0.01 |  |  |  |
| O=C(CCCCCC(OCc1ccc(Br)cc1)C(=O)Nc1ccccc1)NO (racemic) [Compound 9f, (±)-2-(4-Bromobenzyloxy)octanedioic acid 8-hydroxyamide 1-phenylamide] | 0.06 ± 0.004 | 0.5 ± 0.04 | < 1 | 0.3 ± 0.05 |  |  |  |
| O=C(CCCCCCC(O)C(=O)Nc1ccccc1)NO (racemic) [Compound 13a, (±)-2-Hydroxynonanedioic acid 9-hydroxyamide 1-phenylamide] | 0.9 ± 0.1 | 3.6 ± 0.8 |  | 1.6 ± 0.05 |  |  |  |
| COc1ccc(COC(CCCCCC(=O)NO)C(=O)Nc2ccc(OC)cc2)cc1 (racemic) [Compound 9m, (±)-2-(4-Methoxybenzyloxy)octanedioic acid 8-hydroxyamide 1-[(4-methoxyphenyl)amide]] | 0.1 ± 0.04 | 0.3 ± 0.04 | < 1 | 0.3 ± 0.01 |  |  |  |
| CCCOC(CCCCC(=O)NO)C(=O)Nc1ccccc1 (racemic) [Compound 5e, (±)-2-Propoxyheptanedioic acid 7-hydroxyamide 1-phenylamide] | 4.1 ± 0.3 | 10.4 ± 1.2 |  | 8.5 ± 0.3 |  |  |  |
| COC(CCCCCCC(=O)NO)C(=O)Nc1ccccc1 (racemic) [Compound 13b, (±)-2-Methoxynonanedioic acid 9-hydroxyamide 1-phenylamide] | 0.8 ± 0.03 | 1.9 ± 0.1 |  | 1.1 ± 0.009 |  |  |  |
| C=CCOC(CCCCCC(=O)NO)C(=O)Nc1ccccc1 (racemic) [Compound 9c, (±)-2-Allyloxyoctanedioic acid 8-hydroxyamide 1-phenylamide] | 0.4 ± 0.02 | 1.8 ± 0.1 |  | 1 ± 0.1 |  |  |  |
| COC(CCCCC(=O)NO)C(=O)Nc1ccccc1 (racemic) [Compound 5b, (±)-2-Methoxyheptanedioic acid 7-hydroxyamide 1-phenylamide] | 3.5 ± 0.4 | 5.7 ± 0.5 |  | 5 ± 0.1 |  |  |  |
| O=C(CCCCCC1OCCCCCCOc2ccncc2NC1=O)NO (racemic) [Compound 46, (±)-6-(14-Oxo-6,7,8,9,10,11,14,15-octahydro-13H-5,12-dioxa-2,15-diazabenzocyclotridecen-13-yl)hexanoic acid hydroxyamide] |  | 20 |  | 13 ± 1.7 |  |  |  |
| CO[C@@H](CCCCC(=O)NO)C(=O)Nc1ccccc1 [(S)-5b, 2-(S)-Methoxyheptanedioic acid 7-hydroxyamide 1-phenylamide] | 3.5 ± 0.3 | 7.8 ± 0.5 |  | 6.8 ± 0.3 |  |  |  |
| C=C(C)COC(CCCCC(=O)NO)C(=O)Nc1ccccc1 (racemic) [Compound 5d, (±)-2-(2-Methylallyloxy)heptanedioic acid 7-hydroxyamide 1-phenylamide] | 9.6 ± 0.8 | 14.7 ± 1.6 |  | 12.4 ± 0.2 |  |  |  |
| C=CCOC(CCCCC(=O)NO)C(=O)Nc1ccccc1 (racemic) [Compound 5c, (±)-2-Allyloxyheptanedioic acid 7-hydroxyamide 1-phenylamide] | 4.5 ± 0.4 | 8.6 ± 0.3 |  | 4.3 ± 0.2 |  |  |  |
| COc1ccc(COC(CCCCC(=O)NO)C(=O)Nc2ccccc2)cc1 (racemic) [Compound 5g, (±)-2-(4-Methoxybenzyloxy)heptanedioic acid 7-hydroxyamide 1-phenylamide] | 1 ± 0.1 | 2 ± 0.3 |  | 1.3 ± 0.06 |  |  |  |
| C=CCOC(CCCCCCC(=O)NO)C(=O)Nc1ccccc1 (racemic) [Compound 13c, (±)-2-Allyloxynonanedioic acid 9-hydroxyamide 1-phenylamide] | 0.6 ± 0.06 | 1.5 ± 0.3 |  | 1 ± 0.05 |  |  |  |
| O=C(CCCCC[C@@H]1NCCCCCCOc2ccccc2NC1=O)NO [(S)-42a, 6-(6-Oxo-5,6,7,8,9,10,11,12,13,14-decahydro-15-oxa-5,8-diazabenzocyclotridecen-7-(S)yl)hexanoic acid hydroxyamide hydrochloride] |  | 1.1 ± 0.07 |  | 0.8 ± 0.07 |  |  |  |
| O=C(CCCCC(O)C(=O)Nc1ccccc1)NO (racemic) [Compound 5a, (±)-2-Hydroxyheptanedioic acid 7-hydroxyamide 1-phenylamide] | 3.7 ± 0.6 | 13.7 ± 2.6 |  | 8.6 ± 0.2 |  |  |  |
| COc1cc2cc(c1)COc1ccccc1NC(=O)C(CCCCCC(=O)NO)OCC=C2 (racemic) [Compound 32, (±)-6-(19-Methoxy-11-oxo-3,13-dioxa-10-azatricyclo[15.3.1.04,9]henicosa-1(21),4(9),5,7,15,17,19-heptaen-12-yl)hexanoic acid hydroxyamide] |  | 0.9 ± 0.08 | < 1 | 0.4 ± 0.03 |  |  |  |
